What was measured:
[1] = test system: human T-cell lymphotropic virus type 1 (HTLV-1) protease; conditions: cited from earlier work
HIV-1-SLK = assay: Antiviral assay with resistant HIV-1 variant SLK; assay type: cell-based; conditions: read-out: Antiviral EC50, HIV-1-SLK; multi-PI resistant recombinant virus
HIV-1 protease I84V = HIV-1 protease I84V (Human immunodeficiency virus type 1 group M subtype B, UniProt P12497, I572V/Q495K); assay: biochemical
HIV-1 protease I50V/A71V = HIV-1 protease I50V/A71V (Human immunodeficiency virus type 1 group M subtype B, UniProt P12497, A559V/I538V/Q495K); assay: biochemical

## CCOP(=O)(COc1ccc(C[C@H](NC(=O)O[C@H]2CO[C@H]3OCC[C@H]32)[C@H](O)CN(CC(CC)CC)S(=O)(=O)c2ccc(N)cc2)cc1)OCC [PU6, (3R,3aS,6aR)-Hexahydrofuro[2,3-b]furan-3-yl ((2S,3R)-4-((4-amino-N-(2-ethylbutyl)phenyl)sulfonamido)-1-(4-((diethoxyphosphoryl)methoxy)phenyl)-3-hydroxybutan-2-yl)carbamate]
[1]
  Inhibition of HTLV-1 protease: potent inhibitor

## CCOP(=O)(COc1ccc(C[C@H](NC(=O)O[C@H]2CO[C@H]3OCC[C@H]32)[C@H](O)CN(CC(CC)CC)S(=O)(=O)c2ccc3c(c2)OCO3)cc1)OCC [PU9, (3R,3aS,6aR)-Hexahydrofuro[2,3-b]furan-3-yl ((2S,3R)-1-(4-((diethoxyphosphoryl)methoxy)phenyl)-4-(N-(2-ethylbutyl)benzo[d][1,3]dioxole-5-sulfonamido)-3-hydroxybutan-2-yl)carbamate]
HIV-1-SLK
  EC50: < 10 nM

## CCOP(=O)(COc1ccc(C[C@H](NC(=O)O[C@H]2CO[C@H]3OCC[C@H]32)[C@H](O)CN(CC(C)C)S(=O)(=O)c2ccc(OC)cc2)cc1)OCC [GS-8374]
HIV-1 protease I84V
  Ki: < 0.005 nM
HIV-1 protease I50V/A71V
  Ki: < 0.005 nM

## CCOP(=O)(COc1ccc(C[C@H](NC(=O)O[C@H]2CO[C@H]3OCC[C@H]32)[C@H](O)CN(CC(CC)CC)S(=O)(=O)c2ccc(OC)cc2)cc1)OCC [PU7, (3R,3aS,6aR)-Hexahydrofuro[2,3-b]furan-3-yl ((2S,3R)-1-(4-((diethoxyphosphoryl)methoxy)phenyl)-4-((N-(2-ethylbutyl)-4-methoxyphenyl)sulfonamido)-3-hydroxybutan-2-yl)carbamate]
HIV-1-SLK
  EC50: < 10 nM
